Laboratory results as given in article PMC3927474, “Whole body synthesis rates of DHA from α-linolenic acid are greater than brain DHA accretion and uptake rates in adult rats” (Journal of Lipid Research, 2014).
Several values for one entry are separate records, joined by “and”; a condition that tells them apart may be missing. Identical values can stand only once. Marks after values point to notes of the source that are not given here.

Assays:
[1] = Body weight and food intake, balance study; assay type: in vivo, rat; conditions: 15 wk diet
Description: The remaining pups were weaned, singly housed, continued on the diet of their respective dam for 15 weeks, and were allocated to either the balance study (n = 11), the steady-state infusion study (n = 4), or the brain DHA uptake study (n = 3). For the balance study, the rats were weighed, food intake was determined, and uneaten food was replaced with fresh food on a weekly basis. Rats were euthanized by CO2 asphyxiation. Brains were removed and dissected sagittally. Carcasses and one half brain per rat were stored immediately at −80°C (to be later analyzed for lipid content). The other half brain was flash-frozen with 2-methylbutane on dry ice, and then stored at −80°C until analyzed for mRNA expression. The PUFA content in the brains and bodies of these rats after the 15 week feeding period was compared with the baseline PUFA content (described above) to determine PUFA accretion (equation 1, described below). For the steady-state infusion study and the brain DHA uptake study, a jugular vein catheter was surgically implanted into the rats. After allowing a 24 h recovery, rats were infused with ^2H14-ALA or ^14C-DHA, respectively (described below). The ^2H14-ALA infusion was used to determine DHA synthesis rates following a previously published method ([24]) and the ^14C-DHA infusion was utilized to measure the brain DHA uptake rate by following previously published methods ([26]).

[2] = Balance study: n-3 and n-6 PUFA balance (intake, excretion, accretion, metabolic consumption); assay type: in vivo, rat; conditions: for Fecal excretion: mean % excretion applied to intake; for Fecal excretion / Metabolic consumption of dietary PUFAs: DHA group: refers to DHA; for Dietary PUFA excreted in the feces: 24 h feces at 8 weeks postweaning, percentage of intake; for Metabolic consumption of dietary PUFAs: n-3 PUFA, Eq. 1, 15 weeks
Description: All procedures were performed in accordance with the policies set out by the Canadian Council on Animal Care and were approved by the Animal Ethics Committee at the University of Toronto. Three Long Evans dams each with 18-day-old male Long Evans pups were ordered from Charles River Laboratories (St. Constant, QC, Canada). Pups were nonlittermates and each dam was housed with pups. Upon arrival, dams were allocated to one of the three diets (described below). When the pups were 21 days old, two pups from each dam were euthanized by high-energy head-focused microwave fixation (4.5 kW for 0.9 s). Brains were removed immediately and stored at -80°C until lipid analysis. Bodies were also stored at -80°C immediately after euthanization until analysis. The brains and bodies of these pups were used to determine the PUFA content of the rats at weaning (i.e., baseline PUFA content). […] For the balance study, the rats were weighed, food intake was determined, and uneaten food was replaced with fresh food on a weekly basis. Rats were euthanized by CO2 asphyxiation. Brains were removed and dissected sagittally. Carcasses and one half brain per rat were stored immediately at -80°C (to be later analyzed for lipid content). […] For the steady-state infusion study and the brain DHA uptake study, a jugular vein catheter was surgically implanted into the rats. […] Carcasses were thawed overnight in a refrigerator at 3°C, cut into pieces, and passed through a #12 hand grinder. After the whole body had passed through the grinder once, the homogenate was mixed together by hand and passed at least one more time through the grinder until the mixture was sufficiently homogeneous. Due to the small size of the pups all of the 21-day-old pup bodies were passed through the grinder together. […] New chloroform was added to the remaining aqueous phase, the mixture was once again centrifuged, and the chloroform layer was extracted and added to the previously extracted chloroform layer. […] One hemisphere was thawed briefly and dissected over ice to separate the brainstem, cerebellum, cortex, hippocampus, striatum, and the rest of the brain. […] The homogenizer was then washed with methanol, which was then transferred to the test tube containing the homogenized brain and KCl. […] The chloroform layer was extracted and new chloroform was added to the aqueous phase. […] At 8 weeks postweaning all the feces produced by a rat in 24 h were collected. […] Mean PUFA excretion (percentage of intake) was determined and applied to all animals to determine PUFA excretion. […] Nu-Check Prep, Elysian, MN) was added to the TLE. […] Samples were injected in […] mode. The injector and detector ports were set at 250°C. […] The carrier gas was helium, set to a constant flow rate of 0.7 ml/min. Peaks were identified by retention times of authentic FAME standards (Nu-Chek Prep). […] The concentrations were expressed on a per gram basis then multiplied by total weight of the tissue to determine the total amount of each fatty acid in the tissue.

[3] = Brain DHA uptake study: ^14C-DHA infusion; assay type: in vivo, rat; conditions: for Brain DHA uptake rate: 5 min ^14C-DHA infusion, 15 wk diet
Description: At 15 weeks postweaning, a surgery was performed to implant a catheter into the jugular vein (described above). […] After 5 min of ^14C-DHA infusion rats were euthanized by high-energy head-focused microwave fixation (13.5 kW for 1.6 s). The brains were then removed, dissected sagittally and stored at −80°C until analysis.
A known portion of the plasma TLE was then added to a scintillation vial with 5 ml of scintillation cocktail (GE Healthcare Life Sciences, Baie d'Urfe, QC, Canada). Radioactivity was measured using liquid scintillation counting to determine the plasma AUC for radioactivity. For plasma samples drawn at time 0 s of the infusion, the unesterified lipids were isolated by TLC and quantified using GC-FID (described above).
Radioactivity was quantified by a Packard TRI-CARB2900TR liquid scintillation analyzer (Packard, Meriden, CT) with a detector efficiency of 48.8%. Radioactivity was expressed in disintegrations per minute; then converted to nCi.
Brain hemispheres were homogenized and lipids extracted as described above. A known portion of the TLE was then added to a scintillation tube with 5 ml of scintillation cocktail. Radioactivity was quantified using liquid scintillation counting.
To determine the brain DHA uptake rate, the incorporation coefficient for DHA from the unesterified plasma pool into the brain total lipid pool is ([26]):(Eq. 5) k^*=cbr*(T)/∫0Tcpl*dt where cbr*(T) is the total brain radioactivity at the end of the infusion and ∫0Tcpl*dt is the plasma radioactivity AUC.
Multiplying the incorporation coefficient by the concentration of plasma unesterified DHA (cpl) allows for the determination of the brain DHA uptake rate:(Eq. 6) Jin=k^*cpl

[4] = rats; cited from earlier work
[5] = average over 15 weeks, listed as DHA diet

Row | SMILES | Mean body weight at 15 weeks [1] [g] | Metabolic consumption of dietary PUFA (n-6) ([2]; 15 weeks) [µmol] | Fecal excretion ([2]; 15 weeks) [µmol] | Body Content of n-6 PUFA, Day 105 ([2]; 15 wk diet) [µmol] | Brain Content of n-6 PUFA, Day 105 ([2]; 15 wk diet) [µmol] | Total Accretion: 18:3n-6 ([2]; 15 wk diet) [µmol] | Total Accretion: 20:2n-6 ([2]; 15 wk diet) [µmol] | Total Accretion: 22:4n-6 ([2]; 15 wk diet) [µmol] | Total Accretion: ARA ([2]; 15 wk diet) [µmol] | Total Accretion: LNA ([2]; 15 wk diet) [µmol] | Total Accretion: Total n-6 PUFA ([2]; 15 wk diet) [µmol] | Dietary PUFA excreted in the feces [2] [%] | Brain DHA accretion rate (balance study) ([2]; average over 15 weeks) [µmol/day] | Brain Content of n-6 PUFA, Day 0 ([2]; baseline) [µmol] | Total accretion: DHA ([2]; body + brain, 15 wk diet) | Metabolic consumption of dietary PUFAs [2] | Brain DHA uptake rate [3] [nmol/day] | other results
1 | CC/C=C\C/C=C\C/C=C\CCCCCCCC(=O)O [ALA, α-linolenic acid] | 673 ± 25 | 147161 | 57 ± 2 | 29170 | 20 | 52 | 169 | 138 | 1806 | 25157 | 27489 | 0.27 ± 0.002 | 0.032 ± 0.005 | 14 | 440 ± 39^b μmol | 19037 ± 617^b μmol | 467.6 ± 93.7 | Fecal Excretion of LNA ([2]; 15 weeks): 877 µmol; Body content of n-3 PUFAs, Day 105 ([2]; 15 wk diet, n = 11): 2352 ± 166^b μmol; Brain content of n-3 PUFAs, Day 105 ([2]; 15 wk diet, n = 11): 14 ± 2^b μmol; Total DHA synthesis-accretion rate (balance study) ([2]; average over 15 weeks, body + brain, listed as ALA diet): 4.2 µmol/day and 4.2 ± 0.4 µmol/day; DHA synthesis and accretion in ALA-fed rats relative to brain DHA accretion of DHA-fed rats ([2]; balance study): 100 fold; Dietary ALA metabolically consumed ([2]; balance study): approximately 90%; Body Content of n-6 PUFA, Day 0 ([2]; baseline): 1491 µmol; Body content of n-3 PUFAs, Day 0 ([2]; baseline, 21-day-old pups, n = 2): 139 ± 3 µmol; Brain content of n-3 PUFAs, Day 0 ([2]; baseline, n = 2): 10 ± 0.6 µmol; Total accretion: 20:3n-3 ([2]; body + brain, 15 wk diet): 110 ± 11^ab μmol; Total accretion: ALA ([2]; body + brain, 15 wk diet): 1500 ± 100^b μmol; Total accretion: DPAn-3 ([2]; body + brain, 15 wk diet): 90 ± 7^b μmol; Total accretion: EPA ([2]; body + brain, 15 wk diet): 70 ± 10^b μmol; Total accretion: Total n-3 PUFA ([2]; body + brain, 15 wk diet): 2209 ± 107^b μmol; Brain DHA uptake rate ([3]; listed as ALA diet): 468 nmol/day; DHA synthesis rate from ALA (steady-state infusion) [4]: 9.8 µmol/day
2 | CC/C=C\C/C=C\C/C=C\C/C=C\C/C=C\C/C=C\CCC(=O)O [DHA, Docosahexaenoic acid] | 724 ± 18 | 157517 | 10 ± 0.4 | 32391 | 17 | 41 | 167 | 97 | 1539 | 28810 | 30720 | 0.07 ± 0.02 | 0.042 ± 0.007 | 14 | 1119 ± 62^c μmol | 15783 ± 548^b,** μmol | 858.6 ± 74.8 | Brain DHA accretion rate (balance study) [2, 5]: 0.042 µmol/day; DHA uptake and accretion rate into the brain (balance study) [2, 5]: 42 nmol/day and 42 ± 7 nmol/day; Uptake rate of DHA into the brain, DHA-fed relative to ALA-fed rats ([3]; rat, in vivo): ~2 fold
